Measured values: ChEMBL document CHEMBL1143282, “Synthesis and evaluation of photoreactive probes to elucidate iodide efflux in thyrocytes” (Bioorg Med Chem Lett, 2009)
Calls of active or inactive are those of the source. The calls are words filed in the database; no cut-off is given here.

Tests used:
FRTL-5 [1] = assay: Iodide sequestering activity in rat FRTL5 cells assessed as enhancement of intracellular iodide entrapment at 0.1 to 200 uM after 120 mins in dark by scintillation counting; format: functional, cell-based
FRTL-5 [2] = assay: Iodide sequestering activity in rat FRTL5 cells assessed as enhancement of intracellular iodide entrapment after 120 mins in dark by scintillation counting; format: functional, cell-based; details: for EC50: FRTL-5, 2 h
FRTL-5 [3] = assay: Iodide sequestering activity in rat FRTL5 cells assessed as enhancement of intracellular iodide entrapment at 50 uM after 120 mins in dark by scintillation counting relative to sodium perchlorate; format: functional
FRTL-5 [4] = assay: Iodide sequestering activity in rat FRTL5 cells assessed as enhancement of intracellular iodide entrapment at 200 uM after 120 mins in dark by scintillation counting relative to sodium perchlorate; format: functional
[5] = Chemical stability assessed as photodecomposition-associated half life in MeCN using UV lamp; format: physicochemical; details: MeCN solution irradiated with UV lamp
FRTL-5 [6] = assay: Iodide sequestering activity in rat FRTL5 cells assessed as enhancement of intracellular iodide entrapment at 20 uM after 120 mins in dark by scintillation counting relative to sodium perchlorate; format: functional
[7] = Chemical stability in MeCN/H2O at 4mCi/mL; format: physicochemical

Structure (SMILES)	EC50 (FRTL-5 [2]) [µM]	Activity (FRTL-5 [1])	also measured
N#[N+]c1ccc(-c2ccc(C3=CSC4=NCCN34)cc2)cc1	–	inactive	–
[3H]C1=C(c2ccc(C(=O)c3ccccc3)cc2)N2CCN=C2S1	–	–	Stability [7]: 6 months
FC(F)(F)C1(c2ccc(C3=CSC4=NCCN34)cc2)N=N1	–	inactive	–
[N-]=[N+]=Nc1ccc(-c2ccc(C3=CSC4=NCCN34)cc2)cc1	–	inactive	–

More lines, main results first:

EC50 (FRTL-5 [2]) [µM]	Structure (SMILES)	Activity (FRTL-5 [1])	also measured
50	O=C(c1ccccc1)c1ccc(C2=CSC3=NCCN23)cc1	Active	Activity (FRTL-5 [2]): Dose-dependent effect; fold change (FC) (FRTL-5 [3]): 1.8; fold change (FC) (FRTL-5 [4]): 2.5; half-life [5]: 12 min
20	C1=C(c2ccc(-c3ccccc3)cc2)N2CCN=C2S1	–	fold change (FC) (FRTL-5 [6]): 2.5
